The results in this text go back to patent publication US8076356B2, “Triazolopyridinylsulfanyl derivatives as P38 map kinase inhibitors” (Pfizer Inc., priority 2004, dated 2011).

In this test the test system is TNFα release from human peripheral blood mononuclear cells. The test is described as follows: TNFα screen. Format: cell-based. As to conditions: LPS-stimulated human peripheral blood mononuclear cells, 18 hours incubation, TNFα in supernatant by ELISA, read-out: TNF IC50. The method, then:
Venous blood is collected from healthy volunteers and the mononuclear cells purified by centrifugation through Histopaque (Ficoll) cushions. TNFα production from these cells is stimulated by addition of lipopolysaccharide. After 18 hours incubation in the presence of LPS, the cell supernatant is removed and the concentration of TNFα in the supernatant determined by ELISA.
Background: In an ELISA, binding on a coated surface is turned into a signal by an enzyme label.

pIC50: −log10 of the molar value. Read-outs that look alike come from different tables or passages of the source.

What is called pIC50 is −log10 of the IC50, conventionally taken in molar units. For the compound `CC(C)c1nnc2ccc(Sc3ccccc3CNC(=O)Nc3cc(C(C)(C)C)nn3-c3ccc(Cl)c(O)c3)cn12` [Example 76], the negative-log IC50 (pIC50) is 9.10.
Consider `CSC(C)(C)c1cc(NC(=O)NCc2ccccc2Sc2ccc3nnc(-c4ccccc4F)n3c2)n(-c2ccc(O)cc2)n1` [Example 109, N-(2-{[3-(2-Fluorophenyl)[1,2,4]triazolo[4,3-a]pyridin-6-yl]thio}benzyl)-N′-{1-(4-hydroxyphenyl)-3-[1-methyl-1-(methylthio)ethyl]-1H-pyrazol-5-yl}urea], for which the pIC50 (PBMC) was 8.92.
Turning to `CC(C)(C)c1cc(NC(=O)NCc2ccccc2Sc2ccc3nnc(-c4ccccc4O)n3c2)n(-c2ccc(F)cc2)n1` [Example 46, N-[3-tert-Butyl-1-(4-fluorophenyl)-1H-pyrazol-5-yl]-N′-(2-{[3-(2-hydroxyphenyl)[1,2,4]triazolo[4,3-a]pyridin-6-yl]thio}benzyl)urea], the pIC50 (PBMC) is 9.10.
